Measured values: paper PMC4552634, “A New Set of Chemical Starting Points with Plasmodium falciparum Transmission-Blocking Potential for Antimalarial Drug Discovery” (PLoS ONE, 2015)
Like-named read-outs stand apart in the source and are kept apart here.

Columns and labels:
[1] = tested on: P. falciparum asexual stages; details: asexual stages; TCAMS data; read-out: IC50 asexual; cited from earlier work
HepG2 cells = assay: Cytotoxicity in HepG2 cells (intracellular ATP, ATPlite, 48 h); format: cell-based, human; details: HepG2 cells; IC50 per ratio column head; unit inferred
Protocol: Cells were grown and maintained in EMEM (Sigma-Aldrich) supplemented with 2mM L-glutamine (Sigma-Aldrich) and 10% fetal calf serum (Perbio). […] Passages were routinely made upon reaching 80–90% confluence. For cytotoxicity experiments, cells were seeded onto 96-well clear bottom black plates coated with type I collagen (Biocoat, Becton Dickinson) at a cell density of 20,000 cells/well.
To determine cytotoxic effects, represented by the Tox50 value (the concentration of drug that reduces cell viability by 50%), cells were exposed to serial dilutions of compounds for 48 h at 37°C. The assay medium was as previously described, but supplemented with 5% fetal calf serum instead of 10%. […] In the presence of ATP, luminescence is emitted as the reaction described earlier for the BacTiter-Glo kit. Percentages of inhibition were calculated relative to vehicle control wells.

[2] = tested on: P. falciparum stage V gametocytes; assay: Gametocytocidal ATP bioluminescence assay (single point 5 μM and 1 μM, dose-response); format: cell-based, Plasmodium falciparum; details: for Ratio IC50 HepG2/IC50 P. falciparum: IC50 HepG2 divided by IC50 P. falciparum gametocytes
Protocol: Purified stage IV-V gametocytes were obtained as previously described [10]. Single point ATP bioluminescence assay and dose–response of positive hits was determined in accordance with the previously published protocol [10].

[3] = P. falciparum gametocytes, average, read-out: IC50 Pf Gametocytes average, IC50 (µM) average
[4] = sexual stages (gametocytes), dose-response, read-out: IC50 sexual

Compound	IC50 [1]	IC50 (HepG2 cells)	Ratio IC50 HepG2/IC50 P. falciparum [2]	IC50 [2, 3]	IC50 [2, 4]
CSc1ccc2ccccc2c1CCNCCCCNCCc1c(SC)ccc2ccccc12 [TCMDC-137763]	408 nM	1.65 µM	7	0.23 µM	
CCOc1ccc2ccccc2c1CNCCCCCCNCc1c(OCC)ccc2ccccc12 [TCMDC-137791]	576 nM	1.75 µM	2.5	0.7 µM	
COc1cc2ccccc2c(CNCCCCCCNCc2c(OC)c(OC)cc3ccccc23)c1OC [TCMDC-137795]	1110 nM	4.7 µM	4.5	1.05 µM	1.04 µM
COc1ccc2ccc(OC)c(CNCCCCCCNCc3c(OC)ccc4ccc(OC)cc34)c2c1 [TCMDC-137796]	699 nM	3.4 µM	12	0.29 µM	0.285 µM
COc1ccc2cc(CNCCCCCCNCc3ccc4cc(OC)ccc4c3)ccc2c1 [TCMDC-137797]	624 nM	3 µM	4.48	0.67 µM	
FC(F)(F)COc1ccc2ccccc2c1CNCCCCCCNCc1c(OCC(F)(F)F)ccc2ccccc12 [TCMDC-137816]	352 nM	3.04 µM	8	0.37 µM	
COc1ccc2c(c1CNCCCCCCNCc1c(OC)ccc3c1CCCC3)CCCC2 [TCMDC-137817]	907 nM	3.83 µM	9	0.42 µM	
COc1c(OC)c(OC)c2ccccc2c1CNCCCCCCNCc1c(OC)c(OC)c(OC)c2ccccc12 [TCMDC-137827]	759 nM	3.2 µM	2.79	1.15 µM	1.15 µM
C#CCCOc1ccc2ccccc2c1CNCCCCCCNCc1c(OCCC#C)ccc2ccccc12 [TCMDC-137832]	811 nM	5.5 µM	14	0.41 µM	0.405 µM
C#CCOc1ccc2ccccc2c1CNCCCCCCNCc1c(OCC#C)ccc2ccccc12 [TCMDC-137838]	780 nM	3.19 µM	6.38	0.5 µM	
COc1cc2ccccc2c(OC)c1CCNCCCCNCCc1c(OC)cc2ccccc2c1OC [TCMDC-137842]	891 nM	3.2 µM	10	0.31 µM	0.305 µM
COc1cc2ccccc2c(OC)c1CNCCCCCCNCc1c(OC)cc2ccccc2c1OC [TCMDC-137843]	988 nM	4.25 µM	13	0.32 µM	0.319 µM
CCCCOc1cc(OC)c2ccccc2c1CCNCCCCNCCc1c(OCCCC)cc(OC)c2ccccc12 [TCMDC-137845]	1050 nM	3 µM	6	0.5 µM	
CCCCOc1c(CCNCCCCNCCc2cc(OC)c3ccccc3c2OCCCC)cc(OC)c2ccccc12 [TCMDC-137848]	925 nM	3.1 µM	39	0.08 µM	
FC(F)(F)COc1ccc(CNCCCCCCNCc2ccc(OCC(F)(F)F)c3ccccc23)c2ccccc12 [TCMDC-137853]	400 nM	3 µM	55	0.055 µM	
COc1c(CCNCCCCNCCc2cc(Cl)c3ccccc3c2OC)cc(Cl)c2ccccc12 [TCMDC-137869]	168 nM	3.36 µM	40	0.08 µM	0.083 µM
NC(N)=NN=Cc1c2ccccc2c(Cl)c2cc(Cl)ccc12 [TCMDC-137903]	791 nM	7.5 µM	3.2	2.35 µM	2.35 µM
c1ccc2c(CNCCCN3CCN(CCCNCc4c5ccccc5cc5ccccc45)CC3)c3ccccc3cc2c1 [TCMDC-137909]	182 nM	6.28 µM	60	0.11 µM	0.105 µM

Compound	IC50 [1]	IC50 (HepG2 cells)	Ratio IC50 HepG2/IC50 P. falciparum [2]	IC50 [2, 3]	IC50 [2, 4]
COc1ccc2ccccc2c1CNCCCCCCNCc1c(OC)ccc2ccccc12 [TCMDC-137915]	712 nM	3.59 µM	14	0.25 µM	0.253 µM
CCOc1cc(CNCCCCCCNCc2cc(OCC)c(OCC)c3ccccc23)c2ccccc2c1OCC [TCMDC-137939]	284 nM	2.7 µM	3.62	0.75 µM	0.745 µM
COc1cc2ccccc2cc1CCNCCCCNCCc1cc2ccccc2cc1OC [TCMDC-137944]	403 nM	3.39 µM	32	0.11 µM	0.105 µM
COc1ccc2c(OC)c(CNCCCCCCNCc3ccc4cc(OC)ccc4c3OC)ccc2c1 [TCMDC-137953]	920 nM	3.2 µM	2	1.54 µM	
CCCCCCOc1ccc2ccccc2c1CNCCCCCCNCc1c(OCCCCCC)ccc2ccccc12 [TCMDC-137963]	1060 nM	3.3 µM	7	0.48 µM	
CC(C)Oc1ccc2ccccc2c1CNCCCCCCNCc1c(OC(C)C)ccc2ccccc12 [TCMDC-137965]	612 nM	2.38 µM	17	0.14 µM	
CCCOc1ccc2ccccc2c1CNCCCCCCNCc1c(OCCC)ccc2ccccc12 [TCMDC-137966]	791 nM	3.1 µM	9	0.34 µM	
CC(C)COc1ccc2ccccc2c1CNCCCCCCNCc1c(OCC(C)C)ccc2ccccc12 [TCMDC-137972]	695 nM	1.88 µM	18	0.1 µM	0.103 µM
CC(C)(C)c1ccc(-c2cc3c(ccc4nc(N)nc(N)c43)[nH]2)cc1 [TCMDC-137977]	113 nM	3.26 µM	6	0.55 µM	
CC(C)(C)c1ccc(-c2nc3c(ccc4nc(N)nc(N)c43)[nH]2)cc1 [TCMDC-137984]	158 nM	3.85 µM	19	0.21 µM	0.205 µM
CC(=O)c1ccc2nc[nH]c(=O)c2c1 [TCMDC-138172]	722 nM	< 1.56 µM	<3.9	0.4 µM	
Cc1nc(-c2cccc(Nc3ccnc4cc(-c5nccs5)ccc34)c2)no1 [TCMDC-138334]	322 nM	7.62 µM	25	0.3 µM	
Cc1cc(NCCc2ccccc2)nc(/N=C(\N)Nc2ccccc2Cl)n1 [TCMDC-138370]	789 nM	13.6 µM	2.79	4.87 µM	
CN(C)CCNCc1ccc(-c2ccc3c(Nc4ccc(Oc5ccccc5)cc4)ccnc3c2)o1 [TCMDC-138399]	280 nM	7.57 µM	23	0.33 µM	0.325 µM
CN(C)CCN(C)Cc1cccc(-c2ccc3c(Nc4ccc(F)cc4Cl)ccnc3c2)c1 [TCMDC-138416]	110 nM	3.6 µM	7.5	0.48 µM	
C=CCC1OC(=O)c2cc(OC)cc(OC)c21 (centres unmarked) [TCMDC-138677]	343 nM	< 1.56 µM	<2.6	0.6 µM	
C=C(C)Cn1cc(C2CCN(CCN3CCC(CNC(=O)c4ccc(-c5ccc(C#N)cc5)cc4)CC3)CC2)c2ccccc21 [TCMDC-138854]	433 nM	3.7 µM	1.26	2.93 µM	
